Results taken from paper PMC2663033 (2009).

Experiments:
[1] = test system: aptamer I (DNA, G4) AGTCCGTGGGTAGGGCGGGTTGGGGGTGACT; experiment: peroxidase activity titration (ABTS-H2O2, A421); conditions: 20 mM K+, 200 mM Na+; 5.45 mM ABTS, 25 mM HEPES pH 8.0, 0.05% Triton X-100, 1% DMSO, 0.1 µM hemin
[2] = test system: aptamer III (DNA, G4) AGGGACGGGAAGAAAAGGAAAATCCTTAAAATGTGGAGGGT; experiment: UV-Vis, hyperchromicity of hemin Soret band; conditions: 20 mM K+, 200 mM Na+; 25 mM HEPES pH 7.4, 0.05% Triton X-100, 1% DMSO; 1 µM complex; about 2 x affinity of aptamer 4
[3] = test system: aptamer II (DNA, G4) AGTCCGTGGTTGGTGTGGTTGGGGTGACT; experiment: peroxidase activity (ABTS-H2O2); conditions: 20 mM K+, 200 mM Na+; 25 mM HEPES pH 8.0, 0.05% Triton X-100, 1% DMSO; 1 µM hemin plus 1 µM aptamer
[4] = test system: aptamer 1 (DNA, G4) GGGTAGGGCGGGTTGGG; experiment: peroxidase activity titration (ABTS-H2O2, A421); conditions: 20 mM K+, 200 mM Na+; 5.45 mM ABTS, 25 mM HEPES pH 8.0, 0.05% Triton X-100, 1% DMSO, 0.1 µM hemin
[5] = test system: aptamer 4 (DNA, G4) AGGGACGGGAAGAA/AAAATGTGGAGGGT; experiment: UV-Vis, hyperchromicity of hemin Soret band; conditions: 20 mM K+, 200 mM Na+; 25 mM HEPES pH 7.4, 0.05% Triton X-100, 1% DMSO; 1 µM complex

With C=CC1=C(C)C2=Cc3c(C=C)c(C)c4[n]3[Fe]([Cl])[n]3c(c(C)c(CCC(=O)O)c3=CC3=NC(=C4)C(C)=C3CCC(=O)O)=CC1=N2 as the compound, how does the Kd [1] read?
The Kd was 194 ± 10 nM.

What about the binding [2] of the same compound?
The binding was “yes”.

What about the binding [3] of the same compound?
The binding was “yes”.

What about the Kd [4] of the same compound?
Its Kd is 258 ± 7 nM.

What about the binding [5] of the same compound?
The binding was “yes”.
